Assay results reported in US10413505B1, “Pharmaceutical compositions and methods of using the same” (priority 2017, dated 2019).
Where two headings read alike, the source gives them in different places.

How the values were obtained:
[1] = Example 1 single-dose plasma pharmacokinetics after intranasal administration; type: in vivo, human; settings: single intranasal 160 mg cocaine HCl; for AUC(0-inf) / AUC(0-t) / Cmax / MRT / Tmax / Vd/F / half-life: human, inhaled or intranasal, 160 mg
Experimental: Single-dose plasma and urinary pharmacokinetics of the pharmaceutical composition following intranasal administration was characterized in this study. This was a single-dose study in 30 healthy volunteers. The objective of the study was to examine the systemic pharmacokinetics of the pharmaceutical composition following acute, topical intranasal administration.
(§1) A single dose of a pharmaceutical composition was administered to both nostrils using cottonoid pledgets. […] Each pledget absorbed approximately 1 mL of pharmaceutical composition (i.e., 40 mg cocaine hydrochloride). Two soaked pledgets were placed into each nasal cavity of the subject and against the anterior septum for 20 minutes; thus, a total dose of 160 mg of cocaine hydrochloride was administered.
Blood samples were collected pre-dose (30 minutes before pledget insertion), and 7.5, 15, 20, 30, 45, 60, 75, 90, and 105 minutes and 2, 3, 4, 6, 8, 10, and 12 hours from the start of application of the pharmaceutical composition.
The effect of gender on Cmax, Tmax, AUClast, AUCinf, and t1/2 was determined. The effects of age, body weight, and BMI on AUClast were determined.

[2] = Example 1 urinary pharmacokinetics after intranasal administration; type: in vivo, human; settings: healthy subjects, single intranasal 160 mg cocaine HCl; for CL renal / dose excreted: human, urine, 160 mg; for CL renal: inhaled or intranasal; for dose excreted: other: intranasal
Experimental: as §1
Urine samples were collected pre-dose and at the following intervals from the start of intranasal application of the pharmaceutical composition: 0-2 hours, 2-4 hours, 4-8 hours, and 8-12 hours. […] A 25-μL aliquot of each urine sample was processed by liquid-liquid extraction.
Urinary pharmacokinetic parameters were analyzed using noncompartmental methods.

[3] = Example 3 plasma pharmacokinetics, normal hepatic function vs hepatic impairment
[4] = urine 0-12 h, metabolites as cocaine equivalents

SMILES: COC(=O)[C@H]1[C@@H](OC(=O)c2ccccc2)C[C@@H]2CC[C@H]1N2C [Cocaine, cocaine, reference compound]
- AUC(0-inf) ([1]; both sexes, plasma, healthy subjects, plasma, read-out: AUCinf (Geometric Mean)): 50.3 ng·h/mL
- AUC(0-inf) ([1]; both sexes, plasma, healthy subjects, plasma, read-out: AUCinf (Mean)): 54.9 ng·h/mL
- AUC(0-t) ([1]; both sexes, plasma, healthy subjects, plasma, read-out: AUClast (Geometric Mean)): 34.2 ng·h/mL
- AUC(0-t) ([1]; both sexes, plasma, healthy subjects, plasma, read-out: AUClast (Mean)): 38.4 ng·h/mL
- Cmax ([1]; both sexes, plasma, healthy subjects, plasma, read-out: Cmax (Geometric Mean)): 32.8 ng/mL
- MRT ([1]; both sexes, plasma, healthy subjects, plasma, read-out: MRT (Geometric Mean)): 90 min
- MRT ([1]; both sexes, plasma, healthy subjects, plasma, read-out: MRT (Mean)): 93.6 min
- Tmax ([1]; both sexes, plasma, healthy subjects, plasma, read-out: Tmax (Geometric Mean)): 22.4 min
- Vd/F ([1]; both sexes, plasma, healthy subjects, plasma, read-out: Vd/F (Geometric Mean)): 3680 L
- Vd/F ([1]; both sexes, plasma, healthy subjects, plasma, read-out: Vd/F (Mean)): 3880 L
- AUC(0-inf) ([1]; female, plasma, Female healthy subjects, plasma, read-out: AUCinf (Geometric mean)): 53.9 ng·h/mL
- AUC(0-inf) ([1]; female, plasma, Female healthy subjects, plasma, read-out: AUCinf (Mean)): 60.6 ng·h/mL
- AUC(0-inf) ([1]; female, plasma, Female healthy subjects, plasma, read-out: AUCinf (Median)): 57.6 ng·h/mL
- AUC(0-t) ([1]; female, plasma, Female healthy subjects, plasma, read-out: AUClast (Geometric mean)): 39.4 ng·h/mL
- AUC(0-t) ([1]; female, plasma, Female healthy subjects, plasma, read-out: AUClast (Mean)): 44.4 ng·h/mL
- AUC(0-t) ([1]; female, plasma, Female healthy subjects, plasma, read-out: AUClast (Median)): 32.4 ng·h/mL
- Cmax ([1]; female, plasma, Female healthy subjects, plasma, read-out: Cmax (Geometric mean)): 35.5 ng/mL
- Cmax ([1]; female, plasma, Female healthy subjects, plasma, read-out: Cmax (Mean)): 39 ng/mL
- Cmax ([1]; female, plasma, Female healthy subjects, plasma, read-out: Cmax (Median)): 37 ng/mL
- Tmax ([1]; female, plasma, Female healthy subjects, plasma, read-out: Tmax (Geometric mean)): 23.1 min
- Tmax ([1]; female, plasma, Female healthy subjects, plasma, read-out: Tmax (Mean)): 26.9 min
- Tmax ([1]; female, plasma, Female healthy subjects, plasma, read-out: Tmax (Median)): 20 min
- half-life ([1]; female, plasma, Female healthy subjects, plasma, read-out: t1/2 (Geometric mean) (converted)): 56.5 min
- half-life ([1]; female, plasma, Female healthy subjects, plasma, read-out: t1/2 (Mean) (converted)): 60.6 min
- half-life ([1]; female, plasma, Female healthy subjects, plasma, read-out: t1/2 (Median) (converted)): 60.6 min
- fraction of the 160 mg dose absorbed intact during the 20-minute exposure period (rough estimate, CL/F vs intravenous CL) ([1]; healthy subjects): ~4%
- % EXTRAP (Geometric Mean) ([1]; healthy subjects, plasma): 17.7%
- % EXTRAP (Mean) ([1]; healthy subjects, plasma): 18.7%
- CL/F (Mean) ([1]; healthy subjects, plasma): 3,096 L/h
- Clast (Geometric mean) ([1]; healthy subjects, plasma): 7.05 ng/mL
- Clast (Mean) ([1]; healthy subjects, plasma): 7.18 ng/mL
- Tlast (Geometric mean) ([1]; healthy subjects, plasma): 2.31 h
- Tlast (Mean) ([1]; healthy subjects, plasma): 2.40 h
- Tmax (Mean) ([1]; healthy subjects, plasma): 26 min
- t1/2 (Geometric mean) ([1]; healthy subjects, plasma): 58.5 min
- Cmax ([1]; plasma, healthy subjects, plasma, read-out: Cmax (Mean)): 37 ± 17.3 ng/mL
- Cmax ([1]; plasma, healthy subjects, plasma, read-out: Cmax (range across subjects)): 7.93 to 70.3 ng/mL
- Tmax ([1]; plasma, healthy subjects, plasma, read-out: Tmax (Mean)): 25.8 ± 20.4 min
- half-life ([1]; plasma, healthy subjects, plasma, read-out: t1/2 (Mean) (converted)): 62.4 ± 21 min
- AUC(0-inf) ([1]; male, plasma, Male healthy subjects, plasma, read-out: AUCinf (Geometric mean)): 45.7 ng·h/mL
- AUC(0-inf) ([1]; male, plasma, Male healthy subjects, plasma, read-out: AUCinf (Mean)): 47.2 ng·h/mL
- AUC(0-inf) ([1]; male, plasma, Male healthy subjects, plasma, read-out: AUCinf (Median)): 46.2 ng·h/mL
- AUC(0-t) ([1]; male, plasma, Male healthy subjects, plasma, read-out: AUClast (Geometric mean)): 29.1 ng·h/mL
- AUC(0-t) ([1]; male, plasma, Male healthy subjects, plasma, read-out: AUClast (Mean)): 31.5 ng·h/mL
- AUC(0-t) ([1]; male, plasma, Male healthy subjects, plasma, read-out: AUClast (Median)): 28.5 ng·h/mL
- Cmax ([1]; male, plasma, Male healthy subjects, plasma, read-out: Cmax (Geometric mean)): 30 ng/mL
- Cmax ([1]; male, plasma, Male healthy subjects, plasma, read-out: Cmax (Mean)): 34.6 ng/mL
- Cmax ([1]; male, plasma, Male healthy subjects, plasma, read-out: Cmax (Median)): 31.6 ng/mL
- Tmax ([1]; male, plasma, Male healthy subjects, plasma, read-out: Tmax (Geometric mean)): 21.7 min
- Tmax ([1]; male, plasma, Male healthy subjects, plasma, read-out: Tmax (Mean)): 25 min
- Tmax ([1]; male, plasma, Male healthy subjects, plasma, read-out: Tmax (Median)): 20 min
- half-life ([1]; male, plasma, Male healthy subjects, plasma, read-out: t1/2 (Geometric mean) (converted)): 60.6 min
- half-life ([1]; male, plasma, Male healthy subjects, plasma, read-out: t1/2 (Mean) (converted)): 63.6 min
- half-life ([1]; male, plasma, Male healthy subjects, plasma, read-out: t1/2 (Median) (converted)): 58 min
- Total Urinary Recovery (Geometric mean) [2, 4]: 96.5 µg
- Total Urinary Recovery (Mean) [2, 4]: 117 µg
- Total Urinary Recovery (Median) [2, 4]: 114 µg
- CL renal ([2]; read-out: Renal Clearance (Geometric mean) (converted)): 37.2 mL/min
- CL renal ([2]; read-out: Renal Clearance (Mean) (converted)): 47.2 mL/min
- CL renal ([2]; read-out: Renal Clearance (Median) (converted)): 42.7 mL/min
- dose excreted ([2]; urine 0-12 h, metabolites as cocaine equivalents, read-out: Urinary Recovery (Geometric mean)): 0.0603%
- dose excreted ([2]; urine 0-12 h, metabolites as cocaine equivalents, read-out: Urinary Recovery (Mean)): 0.0729%
- dose excreted ([2]; urine 0-12 h, metabolites as cocaine equivalents, read-out: Urinary Recovery (Median)): 0.0714%
- AUClast Ratio Grade B/Normal ([3]; ANOVA): 284.54%
- AUClast Ratio Grade C/Normal ([3]; ANOVA): 179.88%
- CL/F Ratio Grade B/Normal (GMR) ([3]; ANOVA): 36.25%
- CL/F Ratio Grade C/Normal (GMR) ([3]; ANOVA): 55.28%
- Cmax Ratio Grade C/Normal ([3]; ANOVA): 68.13%
- Cmax Ratio Grade B/Normal ([3]; ANOVA, excludes one outlier subject): 104.89%
- AUClast, times higher than normal subjects ([3]; Grade B hepatic impairment): 2.8 times
- CL/F (Geometric Least Squares Mean, ANOVA) ([3]; Grade B hepatic impairment): 629 L/h
- CL/F, percent reduction vs normal ([3]; Grade B hepatic impairment): 64%
- geometric mean Cmax, percent higher than normal ([3]; Grade B hepatic impairment, outlier excluded): 5%
- geometric mean Cmax, percent higher than normal ([3]; Grade B hepatic impairment, outlier included): 56%
- AUClast, times higher than normal subjects ([3]; Grade C hepatic impairment): 1.8 times
- CL/F (Geometric Least Squares Mean, ANOVA) ([3]; Grade C hepatic impairment): 959 L/h
- CL/F, percent reduction vs normal ([3]; Grade C hepatic impairment): 45%
- geometric mean Cmax, percent lower than normal ([3]; Grade C hepatic impairment): 32%
- CL/F (Geometric Least Squares Mean, ANOVA) ([3]; Normal hepatic function): 1735 L/h
- geometric mean Cmax, percent lower than normal ([3]; all hepatically impaired individuals, outlier excluded): 7%
